In the assay the target is DLK kinase (N-terminally GST-tagged DLK, catalytic domain amino acid 1-520) (Homo sapiens (Human), UniProt Q12852). Nature of the assay: DLK TR-FRET assay. It is filed as biochemical. To be noted: 30 μM ATP, MKK4 K131M substrate, read-out: DLK HTRF (Ki). How it is done:
DLK TR-FRET assay: DLK kinase reactions (20 μL) containing 5 nM N-terminally GST-tagged DLK (catalytic domain amino acid 1-520) (Carna Bioscience), 40 nM N-terminally HIS-tagged MKK4 K131M substrate, and 30 μM ATP in kinase reaction buffer (50 mM HEPES, pH 7.5, 0.01% Triton X-100, 0.01% Bovine γ-Globulins, 2 mM DTT, 10 mM MgCl2 and 1 mM EGTA), and testing compound 1:3 serial diluted starting at 20 uM were incubated at ambient temperature for 60 minutes in 384 well OptiPlate (Perkin Elmer). To quench kinase reactions and detect phosphorylated MKK4, 15 μL of TR-FRET antibody mixture containing 2 nM anti-phosphorylated MKK4 labeled with Europium cryptate (Cisbio) and 23 nM anti-HIS labeled with D2 (Cisbio) in detection buffer (25 mM Tris pH 7.5, 100 mM NaCl, 100 mM EDTA, 0.01% Tween-20, and 200 mM KF) was added to the reaction mixture. The detection mixture was incubated for 3 hours at ambient temperature and the TR-FRET was detected with an EnVision multilabel plate reader (Perkin-Elmer) using the LANCE/DELFIA Dual Enh label from Perkin-Elmer (excitation filter: UV2 (TRF) 320 and emission filters: APC 665 and Europium 615).
(Time-resolved FRET reads energy transfer from a long-lived donor to a nearby acceptor.)

A value given as a limit tells only on which side of the number the result lay.

Chain of DLK kinase (N-terminally GST-tagged DLK, catalytic domain amino acid 1-520) (Q12852 1-520): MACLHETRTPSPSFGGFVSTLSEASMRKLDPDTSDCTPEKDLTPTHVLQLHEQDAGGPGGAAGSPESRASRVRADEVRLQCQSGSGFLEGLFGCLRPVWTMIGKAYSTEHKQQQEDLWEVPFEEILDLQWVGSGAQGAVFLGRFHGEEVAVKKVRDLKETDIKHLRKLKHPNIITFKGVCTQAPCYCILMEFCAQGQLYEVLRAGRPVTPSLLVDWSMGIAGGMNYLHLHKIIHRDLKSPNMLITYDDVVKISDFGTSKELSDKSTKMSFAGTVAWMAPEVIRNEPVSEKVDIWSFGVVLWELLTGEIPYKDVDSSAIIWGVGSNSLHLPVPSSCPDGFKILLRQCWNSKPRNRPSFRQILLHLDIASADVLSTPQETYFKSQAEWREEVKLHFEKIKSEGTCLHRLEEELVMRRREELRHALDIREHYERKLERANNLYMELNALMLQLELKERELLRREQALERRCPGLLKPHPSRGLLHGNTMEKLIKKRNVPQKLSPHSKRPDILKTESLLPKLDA

As usually defined, the Ki is the equilibrium dissociation constant of an inhibitor or competing ligand from its target. Take `Cc1nc(Nc2ccc(C(F)(F)F)cn2)cc(C2CCCN(C(=O)c3ccccc3)C2)n1` (centres unmarked): the Ki is 691 nM.

For `CCc1ccnc(Nc2cc(C3CCCN(C(=O)c4ccccc4)C3)nc(C)n2)c1` (centres unmarked), the Ki stood at 195 nM.

On to `Cc1nc(Nc2cc(C(F)(F)F)ccn2)cc(C2CCCN(C(=O)c3ccc(F)cc3Cl)C2)n1` (centres unmarked), for which the Ki amounted to 52.1 nM.

Regarding `Cc1ccc(Nc2cc(C3CCCN(C(=O)c4ccccc4)C3)nc(C)n2)nc1` (centres unmarked) [Example 5], the Ki is 401 nM.

Turning to `COc1cc(C)ccc1C(=O)N1CCCC(c2cc(Nc3cc(C)ccn3)nc(C)n2)C1` (centres unmarked) [Example 7], the Ki was determined as 20.7 nM.

Consider `Cc1nc(Nc2cc(C(N)=O)ccn2)cc(C2CCCN(C(=O)c3ccccc3)C2)n1` (centres unmarked) [Example 8], for which the Ki was found to be 795 nM.

Turning to `CCOc1ccnc(Nc2cc(C3CCCN(C(=O)c4ccccc4)C3)nc(C)n2)c1` (centres unmarked) [Example 21, {3-[6-(4-Ethoxy-pyridin-2-ylamino)-2-methyl-pyrimidin-4-yl]-piperidin-1-yl}-phenyl-methanone], the Ki is 60.7 nM.

With `Cc1nc(Nc2cc(C(F)(F)F)ccn2)cc(C2CCCN(C(=O)c3ccc(F)cc3)C2)n1` (centres unmarked) [Example 22, (4-Fluoro-phenyl)-{3-[2-methyl-6-(4-trifluoro-methyl-pyridin-2-ylamino)-pyrimidin-4-yl]-piperidin-1-yl}-methanone], the Ki was determined as 43.6 nM.

Take `Cc1ccnc(Nc2cc(C3CCNCC3)nc(N3CCCC3)n2)c1` [Example 24, (4-Methyl-pyridin-2-yl)-(6-piperidin-4-yl-2-pyrrolidin-1-yl-pyrimidin-4-yl)-amine]: the Ki is 20.5 nM.

For `Cc1ccnc(Nc2cc(C3CCN(C(=O)c4ccccc4)CC3)nc(N3CCCC3)n2)c1` [Example 25, {4-[6-(4-Methyl-pyridin-2-ylamino)-2-pyrrolidin-1-yl-pyrimidin-4-yl]-piperidin-1-yl}-phenyl-methanone], the Ki is 50 nM.

Turning to `Cc1ccnc(Nc2cc(C3CCCN(Cc4cn(C)nc4C)C3)nc(C)n2)c1` (centres unmarked) [Example 38, {6-[1-(1,3-Dimethyl-1H-pyrazol-4-ylmethyl)-piperidin-3-yl]-2-methyl-pyrimidin-4-yl}-(4-methyl-pyridin-2-yl)-amine], the inhibition constant Ki is more than 2100 nM.

Regarding `Cc1ccnc(Nc2cc(C3CCCN(Cc4cc(C)nn4C)C3)nc(C)n2)c1` (centres unmarked) [Example 40, {6-[1-(2,5-Dimethyl-2H-pyrazol-3-ylmethyl)-piperidin-3-yl]-2-methyl-pyrimidin-4-yl}-(4-methyl-pyridin-2-yl)-amine], the Ki was determined as 392 nM.

For the compound `CN(CCO)c1nc(Nc2cc(C(F)(F)F)ccn2)cc(C2CCNC2)n1` (centres unmarked) [Example 47, 2-{Methyl-[4-pyrrolidin-3-yl-6-(4-trifluoromethyl-pyridin-2-ylamino)-pyrimidin-2-yl]-amino}-ethanol], the Ki came to 12.6 nM.

In the case of `Cc1ccnc(Nc2cc(C3CCCN(Cc4ccc5nccn5c4)C3)nc(C)n2)c1` (centres unmarked) [Example 49, [6-(1-Imidazo[1,2-a]pyridin-6-ylmethyl-piperidin-3-yl)-2-methyl-pyrimidin-4-yl]-(4-methyl-pyridin-2-yl)-amine], the Ki worked out at 310 nM.

For the compound `Cc1ccnc(Nc2cc(C3CCCN(Cc4cn5ccccc5n4)C3)nc(C)n2)c1` (centres unmarked) [Example 51, [6-(1-Imidazo[1,2-a]pyridin-2-ylmethyl-piperidin-3-yl)-2-methyl-pyrimidin-4-yl]-(4-methyl-pyridin-2-yl)-amine], the Ki worked out at 166 nM.

Consider `Cc1ccnc(Nc2cc(C3CCCN(Cc4ccccn4)C3)nc(C)n2)c1` (centres unmarked) [Example 56, (4-Methyl-pyridin-2-yl)-[2-methyl-6-(1-pyridin-2-ylmethyl-piperidin-3-yl)-pyrimidin-4-yl]-amine], for which the Ki came to 293 nM.

`CC1CCCN1c1nc(Nc2cc(C(F)(F)F)ccn2)cc(C2CCNCC2)n1` (centres unmarked) [Example 65, [2-(2-Methyl-pyrrolidin-1-yl)-6-piperidin-4-yl-pyrimidin-4-yl]-(4-tri-fluoromethyl-pyridin-2-yl)-amine]: the Ki is 0.735 nM.

(Values after patent US9868720B2 (Genentech, Inc., priority 2013, dated 2018).)
